From ChEMBL document CHEMBL1201862, “PubChem BioAssay data set” (2004)
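Where inhibition never reached the appropriate level, the endpoint shown equals the highest concentration tested. Otherwise, values were interpolated linearly from a five-concentration, 48-hour dose response in 96-well plates. GI50 is the concentration that inhibits growth by half.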 The source made the active and inactive calls. Rule as the data show it: active = GI50 up to about 1.1 µM and inactive = higher.

Tests used:
Test in all cases: growth of human tumour cells (NCI), 48 h
T47D = tested on: T47D
SF-295 = tested on: SF-295
MCF7 = tested on: MCF7
MDA-N = tested on: MDA-N
DU-145 = tested on: DU-145
K562 = tested on: K562
NCI/ADR-RES = tested on: NCI/ADR-RES
SF-268 = tested on: SF-268
CAKI-1 = tested on: CAKI-1
HL-60 = tested on: HL-60
A498 = tested on: A498
786-0 = tested on: 786-0
M14 = tested on: M14
HOP-62 = tested on: HOP-62
HOP-92 = tested on: HOP-92
LOX IMVI = tested on: LOX IMVI
Malme-3M = tested on: Malme-3M
EKVX = tested on: EKVX
RPMI-8226 = tested on: RPMI-8226
COLO 205 = tested on: COLO 205
HCT-116 = tested on: HCT-116
MDA-MB-435 = tested on: MDA-MB-435
SK-MEL-28 = tested on: SK-MEL-28
SK-MEL-5 = tested on: SK-MEL-5
OVCAR-4 = tested on: OVCAR-4
KM12 = tested on: KM12
BT-549 = tested on: BT-549
TK-10 = tested on: TK-10
MDA-MB-231 = tested on: MDA-MB-231
UACC-257 = tested on: UACC-257
CCRF-CEM = tested on: CCRF-CEM
OVCAR-5 = tested on: OVCAR-5
NCI-H23 = tested on: NCI-H23
NCI-H226 = tested on: NCI-H226
A549 = tested on: A549
UACC-62 = tested on: UACC-62
SK-MEL-2 = tested on: SK-MEL-2
SR = tested on: SR
RXF 393 = tested on: RXF 393
SF-539 = tested on: SF-539
PC-3 = tested on: PC-3
NCI-H522 = tested on: NCI-H522
IGROV-1 = tested on: IGROV-1
SN12C = tested on: SN12C
NCI-H460 = tested on: NCI-H460
HT-29 = tested on: HT-29
SW-620 = tested on: SW-620
SK-OV-3 = tested on: SK-OV-3
SNB-75 = tested on: SNB-75
Hs-578T = tested on: Hs-578T
OVCAR-8 = tested on: OVCAR-8
OVCAR-3 = tested on: OVCAR-3
MOLT-4 = tested on: MOLT-4
HCC 2998 = tested on: HCC 2998
U-251 = tested on: U-251
UO-31 = tested on: UO-31
SNB-19 = tested on: SNB-19
ACHN = tested on: ACHN
HCT-15 = tested on: HCT-15

COC(=O)/C=C(/C=C1/C(C#N)=C(N)N(c2ccc(Cl)cc2)C1(C)/C(=C\C(=O)OC)C(=O)OC)C(=O)OC (stereo unspecified)
GI50 (T47D): 18.3 µM (inactive)
GI50 (SF-295): 22.8 µM (inactive)
GI50 (MCF7): 20.7 µM (inactive)
GI50 (MDA-N): 16.2 µM (inactive)
GI50 (DU-145): 35.5 µM (inactive)
GI50 (K562): 23.1 µM (inactive)
GI50 (NCI/ADR-RES): 16.8 µM (inactive)
GI50 (SF-268): 19.5 µM (inactive)
GI50 (CAKI-1): 22.8 µM (inactive)
GI50 (HL-60): 13.7 µM (inactive)
GI50 (A498): 44.8 µM (inactive)
GI50 (786-0): 18.1 µM (inactive)
GI50 (M14): 19.5 µM (inactive)
GI50 (HOP-62): 35.9 µM (inactive)
GI50 (HOP-92): 5.71 µM (inactive)
GI50 (LOX IMVI): 17.1 µM (inactive)
GI50 (Malme-3M): 25.1 µM (inactive)
GI50 (EKVX): 43.9 µM (inactive)
GI50 (RPMI-8226): 25.1 µM (inactive)
GI50 (COLO 205): 15 µM (inactive)
GI50 (HCT-116): 15.8 µM (inactive)
GI50 (MDA-MB-435): 18.5 µM (inactive)
GI50 (SK-MEL-28): 18.9 µM (inactive)
GI50 (SK-MEL-5): 15.1 µM (inactive)
GI50 (OVCAR-4): 18.9 µM (inactive)
GI50 (KM12): 17.2 µM (inactive)
GI50 (BT-549): 15.7 µM (inactive)
GI50 (TK-10): 29.4 µM (inactive)
GI50 (MDA-MB-231): 29.2 µM (inactive)
GI50 (UACC-257): 18.9 µM (inactive)
GI50 (CCRF-CEM): 16.3 µM (inactive)
GI50 (OVCAR-5): 21.3 µM (inactive)
GI50 (NCI-H23): 19.2 µM (inactive)
GI50 (NCI-H226): 24.1 µM (inactive)
GI50 (A549): 28.2 µM (inactive)
GI50 (UACC-62): 12.9 µM (inactive)
GI50 (SK-MEL-2): 32.1 µM (inactive)
GI50 (SR): 28.5 µM (inactive)
GI50 (RXF 393): 19.2 µM (inactive)
GI50 (SF-539): 15.4 µM (inactive)
GI50 (PC-3): 12.9 µM (inactive)
GI50 (NCI-H522): 5.69 µM (inactive)
GI50 (IGROV-1): 21.5 µM (inactive)
GI50 (SN12C): 21.6 µM (inactive)
GI50 (NCI-H460): 19.5 µM (inactive)
GI50 (HT-29): 17 µM (inactive)
GI50 (SW-620): 15.9 µM (inactive)
GI50 (SK-OV-3): 33.7 µM (inactive)
GI50 (SNB-75): 25.6 µM (inactive)
GI50 (Hs-578T): 42.8 µM (inactive)
GI50 (OVCAR-8): 17.3 µM (inactive)
GI50 (OVCAR-3): 18.4 µM (inactive)
GI50 (MOLT-4): 23.3 µM (inactive)
GI50 (HCC 2998): 20 µM (inactive)
GI50 (U-251): 26.1 µM (inactive)
GI50 (UO-31): 17.9 µM (inactive)
GI50 (SNB-19): 41.9 µM (inactive)
GI50 (ACHN): 22.6 µM (inactive)
GI50 (HCT-15): 18.5 µM

O=C1O[C@H]2[C@H](O)[C@@H](OC(=O)c3cc(O)c(O)c4c3[C@@H]3C1=CC(=O)C(O)(O)C3(O)O4)[C@H](OC(=O)c1cc(O)c(O)c(O)c1)O[C@@H]2CO (stereo partly specified) [FUROSIN]
GI50 (T47D): > 100 µM (inactive)
GI50 (SF-295): 71.6 µM (inactive)
GI50 (MCF7): > 100 µM (inactive)
GI50 (MDA-N): 33.6 µM (inactive)
GI50 (DU-145): > 100 µM (inactive)
GI50 (K562): 38.1 µM (inactive)
GI50 (NCI/ADR-RES): > 100 µM (inactive)
GI50 (SF-268): 76.4 µM (inactive)
GI50 (CAKI-1): > 100 µM (inactive)
GI50 (HL-60): 28.2 µM (inactive)
GI50 (A498): > 100 µM (inactive)
GI50 (786-0): > 100 µM (inactive)
GI50 (M14): 62.2 µM (inactive)
GI50 (HOP-62): > 100 µM (inactive)
GI50 (HOP-92): 42 µM (inactive)
GI50 (LOX IMVI): 48 µM (inactive)
GI50 (Malme-3M): > 100 µM (inactive)
GI50 (EKVX): > 100 µM (inactive)
GI50 (RPMI-8226): > 100 µM (inactive)
GI50 (COLO 205): 99.3 µM (inactive)
GI50 (HCT-116): 74.8 µM (inactive)
GI50 (MDA-MB-435): 39.5 µM (inactive)
GI50 (SK-MEL-28): > 100 µM (inactive)
GI50 (SK-MEL-5): 42.5 µM (inactive)
GI50 (OVCAR-4): > 100 µM (inactive)
GI50 (KM12): 26.7 µM (inactive)
GI50 (BT-549): > 100 µM (inactive)
GI50 (MDA-MB-231): > 100 µM (inactive)
GI50 (UACC-257): > 100 µM (inactive)
GI50 (CCRF-CEM): 17.9 µM (inactive)
GI50 (OVCAR-5): > 100 µM (inactive)
GI50 (NCI-H23): > 100 µM (inactive)
GI50 (NCI-H226): > 100 µM (inactive)
GI50 (A549): 79.1 µM (inactive)
GI50 (UACC-62): 75.7 µM (inactive)
GI50 (SK-MEL-2): > 100 µM (inactive)
GI50 (SR): 32.1 µM (inactive)
GI50 (RXF 393): > 100 µM (inactive)
GI50 (PC-3): > 100 µM (inactive)
GI50 (NCI-H522): 45.4 µM (inactive)
GI50 (IGROV-1): > 100 µM (inactive)
GI50 (SN12C): > 100 µM (inactive)
GI50 (NCI-H460): 64.1 µM (inactive)
GI50 (HT-29): 49.1 µM (inactive)
GI50 (SW-620): > 100 µM (inactive)
GI50 (SK-OV-3): 86.5 µM (inactive)
GI50 (SNB-75): 78.9 µM (inactive)
GI50 (Hs-578T): > 100 µM (inactive)
GI50 (OVCAR-8): 79.1 µM (inactive)
GI50 (OVCAR-3): 33.2 µM (inactive)
GI50 (MOLT-4): > 100 µM (inactive)
GI50 (HCC 2998): > 100 µM (inactive)
GI50 (U-251): > 100 µM (inactive)
GI50 (UO-31): 57.1 µM (inactive)
GI50 (SNB-19): > 100 µM (inactive)
GI50 (ACHN): 41.6 µM (inactive)
GI50 (HCT-15): 36.4 µM
